Data as given in PubChem BioAssay (NCI).
“And” between values parts separate entries of the source, which are not always exact repeats. Equal values may be shown once.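 Interpolation was linear, between the two tested concentrations surrounding the appropriate level; five concentrations were tested over 48 hours in 96-well plates. Abbreviation: GI50, concentration required for 50% inhibition of growth. TGI denotes the concentration required for complete inhibition of growth.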

Columns and labels:
Assay in all cases: NCI-60 cell line screen, 48 h
SF-295 CNS = test system: SF-295 CNS
BT-549 breast = test system: BT-549 breast
OVCAR-5 ovarian = test system: OVCAR-5 ovarian
MALME-3M melanoma = test system: MALME-3M melanoma
CAKI-1 renal = test system: CAKI-1 renal
MDA-MB-435 = test system: MDA-MB-435
HOP-92 NSCLC = test system: HOP-92 NSCLC
SR leukemia = test system: SR leukemia
NCI/ADR-RES ovarian = test system: NCI/ADR-RES ovarian
EKVX NSCLC = test system: EKVX NSCLC
SF-539 CNS = test system: SF-539 CNS
786-0 renal = test system: 786-0 renal
NCI-H460 lung = test system: NCI-H460 lung
HCT-15 colon = test system: HCT-15 colon
HL-60(TB) leukemia = test system: HL-60(TB) leukemia
HCC-2998 colon = test system: HCC-2998 colon
OVCAR-8 ovarian = test system: OVCAR-8 ovarian
U251 CNS = test system: U251 CNS
M14 melanoma = test system: M14 melanoma
RPMI-8226 leukemia = test system: RPMI-8226 leukemia
SN12C renal = test system: SN12C renal
HT29 colon = test system: HT29 colon
HS 578T breast = test system: HS 578T breast
DU-145 prostate = test system: DU-145 prostate
CCRF-CEM leukemia = test system: CCRF-CEM leukemia
RXF 393 renal = test system: RXF 393 renal
IGROV1 ovarian = test system: IGROV1 ovarian
A549 NSCLC = test system: A549 NSCLC
SK-MEL-2 melanoma = test system: SK-MEL-2 melanoma
NCI-H522 lung = test system: NCI-H522 lung
MOLT-4 leukemia = test system: MOLT-4 leukemia
MDA-MB-231 breast = test system: MDA-MB-231 breast
NCI-H226 lung = test system: NCI-H226 lung
NCI-H23 lung = test system: NCI-H23 lung
HCT-116 colon = test system: HCT-116 colon
UO-31 renal = test system: UO-31 renal
PC-3 prostate = test system: PC-3 prostate
SK-MEL-5 melanoma = test system: SK-MEL-5 melanoma
TK-10 renal = test system: TK-10 renal
ACHN renal = test system: ACHN renal
MCF7 breast = test system: MCF7 breast
T-47D breast = test system: T-47D breast
SF-268 CNS = test system: SF-268 CNS
OVCAR-3 ovarian = test system: OVCAR-3 ovarian
KM12 colon = test system: KM12 colon
LOX IMVI melanoma = test system: LOX IMVI melanoma
SK-MEL-28 melanoma = test system: SK-MEL-28 melanoma
UACC-62 melanoma = test system: UACC-62 melanoma
OVCAR-4 ovarian = test system: OVCAR-4 ovarian
A498 renal = test system: A498 renal
UACC-257 melanoma = test system: UACC-257 melanoma
COLO 205 colon = test system: COLO 205 colon
SK-OV-3 ovarian = test system: SK-OV-3 ovarian
HOP-62 NSCLC = test system: HOP-62 NSCLC
SNB-19 CNS = test system: SNB-19 CNS
SW-620 colon = test system: SW-620 colon
K-562 leukemia = test system: K-562 leukemia

COc1ccc2c(c1)nnc1c3cccnc3[nH]c21
TGI (SF-295 CNS): 11.3 µM and > 100 µM
GI50 (BT-549 breast): 3.43 µM and 3.26 µM
TGI (BT-549 breast): 15 µM and 20.5 µM
GI50 (OVCAR-5 ovarian): 5.72 µM and 35.4 µM
TGI (OVCAR-5 ovarian): 20.2 µM and > 100 µM
GI50 (MALME-3M melanoma): 1.06 µM and 0.926 µM
TGI (MALME-3M melanoma): 4.63 µM and 4.18 µM
GI50 (CAKI-1 renal): 0.108 µM and 0.594 µM
GI50 (MDA-MB-435): 1.44 µM and 1.52 µM
TGI (MDA-MB-435): 9.43 µM and 12.3 µM
GI50 (HOP-92 NSCLC): 0.0817 µM and 0.131 µM
TGI (HOP-92 NSCLC): 1.11 µM and 3.26 µM
GI50 (SR leukemia): 0.0313 µM and 0.0336 µM
GI50 (NCI/ADR-RES ovarian): 1.79 µM and 1.92 µM
TGI (NCI/ADR-RES ovarian): 12.5 µM and 18.9 µM
GI50 (EKVX NSCLC): 2.82 µM and 6.62 µM
TGI (EKVX NSCLC): 50 µM and > 100 µM
GI50 (SF-539 CNS): 0.642 µM and 0.428 µM
TGI (SF-539 CNS): 1.62 µM and 1.87 µM
GI50 (786-0 renal): 0.509 µM and 2.23 µM
GI50 (NCI-H460 lung): 1.93 µM and 1.28 µM
TGI (NCI-H460 lung): 9.03 µM and 3.79 µM
GI50 (HCT-15 colon): 2.26 µM and 2.3 µM
TGI (HCT-15 colon): 50 µM and 12.9 µM
GI50 (HL-60(TB) leukemia): 0.158 µM and 0.243 µM
GI50 (HCC-2998 colon): 8.23 µM and 10 µM
TGI (HCC-2998 colon): 18.4 µM and 23.8 µM
GI50 (OVCAR-8 ovarian): 0.619 µM and 0.376 µM
GI50 (U251 CNS): 0.929 µM and 0.987 µM
TGI (U251 CNS): 17.3 µM and 10.7 µM
GI50 (M14 melanoma): 1.07 µM and 3.26 µM
GI50 (RPMI-8226 leukemia): 0.725 µM and 0.487 µM
TGI (RPMI-8226 leukemia): 2.98 µM and 5.53 µM
GI50 (SN12C renal): 1.63 µM and 1.68 µM
TGI (SN12C renal): 7.77 µM and 10.7 µM
GI50 (HT29 colon): 0.751 µM and 0.541 µM
GI50 (HS 578T breast): 3.47 µM and 4.89 µM
TGI (HS 578T breast): 25.5 µM and 81.2 µM
GI50 (DU-145 prostate): 1.88 µM and 1.04 µM
TGI (DU-145 prostate): 12.9 µM and 4.46 µM
GI50 (CCRF-CEM leukemia): 0.0372 µM
TGI (CCRF-CEM leukemia): > 100 µM
GI50 (RXF 393 renal): 0.66 µM and 1.76 µM
TGI (RXF 393 renal): 2.15 µM and 12.6 µM
GI50 (IGROV1 ovarian): 0.31 µM and 0.55 µM
GI50 (A549 NSCLC): 7.9 µM and 3.53 µM
TGI (A549 NSCLC): 42.5 µM and 15.4 µM
GI50 (SK-MEL-2 melanoma): 1.96 µM and 3.6 µM
GI50 (NCI-H522 lung): 1.09 µM
TGI (NCI-H522 lung): 3 µM
GI50 (MOLT-4 leukemia): 0.0299 µM
TGI (MOLT-4 leukemia): 0.219 µM
GI50 (MDA-MB-231 breast): 1.42 µM and 1.56 µM
TGI (MDA-MB-231 breast): 11.4 µM and 6.1 µM
GI50 (NCI-H226 lung): 2.62 µM and 7.87 µM
TGI (NCI-H226 lung): 11.1 µM and 65.3 µM
GI50 (NCI-H23 lung): 5.5 µM and 3.04 µM
TGI (NCI-H23 lung): 14.1 µM and 14.9 µM
GI50 (HCT-116 colon): 0.209 µM and 0.146 µM
GI50 (UO-31 renal): 0.122 µM and 0.172 µM
TGI (UO-31 renal): 1.11 µM and 2.17 µM
GI50 (PC-3 prostate): 1.42 µM
TGI (PC-3 prostate): > 100 µM
GI50 (SK-MEL-5 melanoma): 5.85 µM and 4.04 µM
TGI (SK-MEL-5 melanoma): 12.6 µM and 18.9 µM
GI50 (TK-10 renal): 4.52 µM
TGI (TK-10 renal): 22.6 µM
GI50 (ACHN renal): 0.231 µM
TGI (ACHN renal): > 100 µM
GI50 (MCF7 breast): 0.228 µM and 0.209 µM
TGI (MCF7 breast): 0.966 µM and 1.41 µM
GI50 (T-47D breast): 0.492 µM and 0.224 µM
TGI (T-47D breast): 2.61 µM and 4.21 µM
GI50 (SF-268 CNS): 0.733 µM and 0.365 µM
TGI (SF-268 CNS): 4.7 µM and 5.65 µM
GI50 (OVCAR-3 ovarian): 0.964 µM and 1.17 µM
TGI (OVCAR-3 ovarian): 2.43 µM and 4.09 µM
GI50 (KM12 colon): 1.22 µM and 1.92 µM
TGI (KM12 colon): 5.89 µM and 13.4 µM
GI50 (LOX IMVI melanoma): 0.758 µM and 0.403 µM
TGI (LOX IMVI melanoma): 4.22 µM and 2.61 µM
GI50 (SK-MEL-28 melanoma): 11.8 µM and 11.2 µM
TGI (SK-MEL-28 melanoma): 50 µM and > 100 µM
GI50 (UACC-62 melanoma): 0.908 µM and 2.11 µM
TGI (UACC-62 melanoma): 6.93 µM and 12.6 µM
GI50 (OVCAR-4 ovarian): 1.41 µM and 2.58 µM
TGI (OVCAR-4 ovarian): 16.2 µM and > 100 µM
GI50 (A498 renal): 8 µM and 2.48 µM
TGI (A498 renal): 19.2 µM and 21.3 µM
GI50 (UACC-257 melanoma): 7.49 µM and 1.91 µM
TGI (UACC-257 melanoma): 41 µM and 10.7 µM
GI50 (COLO 205 colon): 1.13 µM and 0.735 µM
TGI (COLO 205 colon): 4.87 µM and 2.31 µM
GI50 (SK-OV-3 ovarian): 2.69 µM and 2.38 µM
TGI (SK-OV-3 ovarian): 13.5 µM and 12.5 µM
GI50 (HOP-62 NSCLC): 5.47 µM and 26 µM
TGI (HOP-62 NSCLC): 16.1 µM and > 100 µM
GI50 (SNB-19 CNS): 7.61 µM and 9.99 µM
TGI (SNB-19 CNS): 18.7 µM and 33.4 µM
GI50 (SW-620 colon): 0.378 µM and 0.978 µM
GI50 (K-562 leukemia): 0.221 µM and 1.06 µM
